{"source": "the kinase profiling compilation of Christmann-Franck et al. (2016)", "assay_in_all_cases": "radiometric filter-binding kinase assay", "key": {"[1]": {"test_system": "AKT1 (human), P31749 [S473D]", "sequence (P31749 whole entry S473D, looked up)": "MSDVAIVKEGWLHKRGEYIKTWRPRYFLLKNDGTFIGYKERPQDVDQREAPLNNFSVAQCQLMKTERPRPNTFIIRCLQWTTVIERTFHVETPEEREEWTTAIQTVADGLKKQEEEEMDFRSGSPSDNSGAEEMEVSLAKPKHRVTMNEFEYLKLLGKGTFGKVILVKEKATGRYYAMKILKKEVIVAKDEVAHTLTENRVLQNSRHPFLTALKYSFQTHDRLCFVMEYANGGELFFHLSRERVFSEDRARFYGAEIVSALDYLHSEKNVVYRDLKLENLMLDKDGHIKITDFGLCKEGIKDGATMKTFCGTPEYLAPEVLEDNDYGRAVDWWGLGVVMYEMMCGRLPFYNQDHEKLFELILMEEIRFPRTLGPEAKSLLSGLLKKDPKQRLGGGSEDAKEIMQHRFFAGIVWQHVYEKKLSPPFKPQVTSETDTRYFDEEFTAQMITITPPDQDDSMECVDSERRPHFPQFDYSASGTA"}, "AURKA (human)": {"target": "AURKA (human) (UniProt O14965)"}, "BRSK1 (human)": {"target": "BRSK1 (human) (UniProt Q8TDC3)"}, "DYRK2 (human)": {"target": "DYRK2 (human) (UniProt Q92630)", "sequence (Q92630 whole entry, looked up)": "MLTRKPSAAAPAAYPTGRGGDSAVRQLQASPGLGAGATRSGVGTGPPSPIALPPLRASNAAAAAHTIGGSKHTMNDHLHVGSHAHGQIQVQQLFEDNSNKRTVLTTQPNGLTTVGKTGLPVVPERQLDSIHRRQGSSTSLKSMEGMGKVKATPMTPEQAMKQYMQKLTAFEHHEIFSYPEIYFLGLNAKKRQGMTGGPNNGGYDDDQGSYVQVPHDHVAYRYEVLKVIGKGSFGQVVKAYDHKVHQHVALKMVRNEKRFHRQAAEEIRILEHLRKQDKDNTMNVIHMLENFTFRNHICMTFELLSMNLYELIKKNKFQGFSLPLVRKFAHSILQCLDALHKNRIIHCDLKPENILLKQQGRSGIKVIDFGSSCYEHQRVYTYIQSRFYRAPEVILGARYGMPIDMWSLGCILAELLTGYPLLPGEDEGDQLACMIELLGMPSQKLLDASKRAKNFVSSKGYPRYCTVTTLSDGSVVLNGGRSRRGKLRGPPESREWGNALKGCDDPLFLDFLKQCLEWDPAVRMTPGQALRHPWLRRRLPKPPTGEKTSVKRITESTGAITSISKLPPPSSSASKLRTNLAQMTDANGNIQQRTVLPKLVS"}, "EEF2K (human)": {"target": "EEF2K (human) (UniProt O00418)"}, "EPHA2 (human)": {"target": "EPHA2 (human) (UniProt P29317)"}, "EPHB3 (human)": {"target": "EPHB3 (human) (UniProt P54753)"}, "ERBB4 (human)": {"target": "ERBB4 (human) (UniProt Q15303)"}, "GSK3B (human)": {"target": "GSK3B (human) (UniProt P49841)", "sequence (P49841 whole entry, looked up)": "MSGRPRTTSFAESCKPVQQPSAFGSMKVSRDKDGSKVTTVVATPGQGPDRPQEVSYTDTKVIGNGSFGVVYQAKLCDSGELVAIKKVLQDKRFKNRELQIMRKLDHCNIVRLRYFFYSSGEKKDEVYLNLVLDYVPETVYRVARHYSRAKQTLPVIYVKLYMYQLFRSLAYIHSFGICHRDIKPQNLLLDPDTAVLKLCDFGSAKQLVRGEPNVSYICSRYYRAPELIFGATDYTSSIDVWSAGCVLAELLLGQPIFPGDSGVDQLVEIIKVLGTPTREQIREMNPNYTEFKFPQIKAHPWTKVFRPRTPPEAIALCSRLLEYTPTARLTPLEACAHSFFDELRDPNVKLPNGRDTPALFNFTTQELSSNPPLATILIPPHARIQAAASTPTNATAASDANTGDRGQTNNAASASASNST"}, "HIPK3 (human)": {"target": "HIPK3 (human) (UniProt Q9H422)"}, "INSR (human)": {"target": "INSR (human) (UniProt P06213)"}, "IRAK4 (human)": {"target": "IRAK4 (human) (UniProt Q9NWZ3)"}, "MAP2K2 (human)": {"target": "MAP2K2 (human) (UniProt P36507)", "conditions": "compound 1.0 µM"}, "MAP2K6 (human)": {"target": "MAP2K6 (human) (UniProt P52564)", "conditions": "compound 1.0 µM"}, "MAP3K1 (human)": {"target": "MAP3K1 (human) (UniProt Q13233)"}, "MAP3K11 (human)": {"target": "MAP3K11 (human) (UniProt Q16584)"}, "MAP3K5 (human)": {"target": "MAP3K5 (human) (UniProt Q99683)", "conditions": "compound 1.0 µM"}, "MAP3K7 TAB1 (human)": {"target": "MAP3K7 TAB1 (human) (UniProt Q15750+O43318)"}, "MAP3K9 (human)": {"target": "MAP3K9 (human) (UniProt P80192)"}, "MAPK12 (human)": {"target": "MAPK12 (human) (UniProt P53778)"}, "MAPK9 (human)": {"target": "MAPK9 (human) (UniProt P45984)"}, "MAPKAPK2 (human)": {"target": "MAPKAPK2 (human) (UniProt P49137)"}, "MARK1 (human)": {"target": "MARK1 (human) (UniProt Q9P0L2)"}, "MARK2 (human)": {"target": "MARK2 (human) (UniProt Q7KZI7)"}, "MARK4 (human)": {"target": "MARK4 (human) (UniProt Q96L34)", "sequence (Q96L34 whole entry, looked up)": "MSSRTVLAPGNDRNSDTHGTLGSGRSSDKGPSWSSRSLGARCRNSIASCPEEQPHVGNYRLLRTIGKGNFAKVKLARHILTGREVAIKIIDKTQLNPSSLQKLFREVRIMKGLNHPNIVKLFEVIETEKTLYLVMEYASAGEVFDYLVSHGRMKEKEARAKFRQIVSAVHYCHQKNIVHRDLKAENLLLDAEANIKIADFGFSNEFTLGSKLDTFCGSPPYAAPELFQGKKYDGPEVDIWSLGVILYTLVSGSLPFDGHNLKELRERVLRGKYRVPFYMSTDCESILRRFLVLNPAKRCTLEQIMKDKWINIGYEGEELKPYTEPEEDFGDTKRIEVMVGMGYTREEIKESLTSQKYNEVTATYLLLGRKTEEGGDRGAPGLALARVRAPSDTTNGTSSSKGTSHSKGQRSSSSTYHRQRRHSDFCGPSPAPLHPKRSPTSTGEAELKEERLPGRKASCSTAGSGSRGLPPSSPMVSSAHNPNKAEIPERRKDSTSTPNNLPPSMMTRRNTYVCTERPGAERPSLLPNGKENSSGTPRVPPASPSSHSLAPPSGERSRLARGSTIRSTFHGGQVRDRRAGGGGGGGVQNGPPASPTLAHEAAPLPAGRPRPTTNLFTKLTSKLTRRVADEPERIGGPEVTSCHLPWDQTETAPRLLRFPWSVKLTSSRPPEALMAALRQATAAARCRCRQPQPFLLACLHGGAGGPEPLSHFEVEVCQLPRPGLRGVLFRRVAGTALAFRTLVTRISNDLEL"}, "MELK (human)": {"target": "MELK (human) (UniProt Q14680)"}, "MST4 (human)": {"target": "MST4 (human) (UniProt Q9P289)"}, "NTRK1 (human)": {"target": "NTRK1 (human) (UniProt P04629)", "sequence (P04629 whole entry, looked up)": "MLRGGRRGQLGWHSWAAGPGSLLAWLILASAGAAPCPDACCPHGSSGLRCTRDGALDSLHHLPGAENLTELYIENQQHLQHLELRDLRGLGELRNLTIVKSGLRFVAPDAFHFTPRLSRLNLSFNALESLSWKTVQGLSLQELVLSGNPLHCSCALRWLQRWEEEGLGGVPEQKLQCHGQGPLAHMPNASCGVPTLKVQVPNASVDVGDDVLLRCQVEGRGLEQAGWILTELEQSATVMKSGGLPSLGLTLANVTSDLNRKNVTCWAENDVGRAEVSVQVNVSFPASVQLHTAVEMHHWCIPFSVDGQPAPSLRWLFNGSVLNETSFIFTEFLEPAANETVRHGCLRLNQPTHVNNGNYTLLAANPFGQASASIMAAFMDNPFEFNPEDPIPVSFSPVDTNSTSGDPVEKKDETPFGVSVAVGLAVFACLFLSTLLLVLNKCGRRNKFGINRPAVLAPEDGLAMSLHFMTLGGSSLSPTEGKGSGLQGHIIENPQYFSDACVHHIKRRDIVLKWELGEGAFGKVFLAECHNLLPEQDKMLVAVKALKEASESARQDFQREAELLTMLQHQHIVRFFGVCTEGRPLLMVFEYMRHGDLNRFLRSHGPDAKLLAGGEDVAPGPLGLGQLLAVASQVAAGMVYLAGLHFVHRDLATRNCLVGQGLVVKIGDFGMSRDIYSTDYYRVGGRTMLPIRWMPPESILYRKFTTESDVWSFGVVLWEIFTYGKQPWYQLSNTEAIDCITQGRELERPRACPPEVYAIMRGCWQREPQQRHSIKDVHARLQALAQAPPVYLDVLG"}, "NUAK1 (human)": {"target": "NUAK1 (human) (UniProt O60285)"}, "PAK4 (human)": {"target": "PAK4 (human) (UniProt O96013)"}, "PAK6 (human)": {"target": "PAK6 (human) (UniProt Q9NQU5)"}, "PIM1 (human)": {"target": "PIM1 (human) (UniProt P11309)"}, "PKN2 (human)": {"target": "PKN2 (human) (UniProt Q16513)"}, "PRKCA (human)": {"target": "PRKCA (human) (UniProt P17252)"}, "PRKCZ (human)": {"target": "PRKCZ (human) (UniProt Q05513)"}, "[2]": {"target": "STK11 CAB39 STRADA (human) (UniProt Q9Y376+Q7RTN6+Q15831)", "sequence (Q15831 whole entry, looked up)": "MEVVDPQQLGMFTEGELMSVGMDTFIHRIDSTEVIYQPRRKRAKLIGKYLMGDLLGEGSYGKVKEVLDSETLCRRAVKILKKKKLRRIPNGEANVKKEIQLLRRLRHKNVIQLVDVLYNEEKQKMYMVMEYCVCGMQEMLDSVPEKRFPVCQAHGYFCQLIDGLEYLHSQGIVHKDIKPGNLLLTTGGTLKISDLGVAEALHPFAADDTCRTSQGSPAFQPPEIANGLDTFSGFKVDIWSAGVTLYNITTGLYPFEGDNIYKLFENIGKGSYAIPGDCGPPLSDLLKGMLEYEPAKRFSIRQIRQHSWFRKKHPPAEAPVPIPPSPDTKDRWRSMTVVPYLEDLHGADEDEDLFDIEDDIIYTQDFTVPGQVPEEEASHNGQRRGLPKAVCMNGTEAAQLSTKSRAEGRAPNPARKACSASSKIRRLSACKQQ", "sequence (Q7RTN6 whole entry, looked up)": "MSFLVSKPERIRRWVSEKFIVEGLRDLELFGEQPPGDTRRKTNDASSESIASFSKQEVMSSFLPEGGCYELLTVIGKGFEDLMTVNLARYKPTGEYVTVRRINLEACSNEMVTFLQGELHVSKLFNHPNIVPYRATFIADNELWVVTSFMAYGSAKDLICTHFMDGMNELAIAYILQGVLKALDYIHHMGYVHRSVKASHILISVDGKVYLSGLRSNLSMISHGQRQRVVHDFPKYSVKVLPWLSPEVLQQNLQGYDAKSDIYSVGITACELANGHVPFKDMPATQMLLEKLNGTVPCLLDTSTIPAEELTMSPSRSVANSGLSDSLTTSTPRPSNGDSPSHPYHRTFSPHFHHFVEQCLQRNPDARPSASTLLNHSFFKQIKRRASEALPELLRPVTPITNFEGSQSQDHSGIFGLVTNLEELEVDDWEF", "sequence (Q9Y376 whole entry, looked up)": "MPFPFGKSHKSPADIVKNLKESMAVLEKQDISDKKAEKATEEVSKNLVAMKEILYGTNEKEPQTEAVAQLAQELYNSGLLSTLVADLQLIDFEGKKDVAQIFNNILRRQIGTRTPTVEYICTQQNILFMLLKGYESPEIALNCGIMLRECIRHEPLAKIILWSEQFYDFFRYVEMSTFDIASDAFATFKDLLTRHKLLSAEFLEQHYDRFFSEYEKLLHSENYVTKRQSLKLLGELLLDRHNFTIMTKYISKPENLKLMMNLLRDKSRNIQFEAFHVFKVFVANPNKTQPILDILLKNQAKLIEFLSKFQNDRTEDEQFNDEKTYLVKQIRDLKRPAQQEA"}}}
{"smiles": "O=c1c(O)c(-c2ccc(O)c(O)c2)oc2cc(O)c(O)c(O)c12", "values": [{"measurement": "residual activity", "setting": "[1]; compound 1.0 µM", "result": 106, "unit": "%"}, {"measurement": "residual activity", "setting": "[1]; compound 10.0 µM", "result": 99, "unit": "%"}, {"measurement": "residual activity", "setting": "AURKA (human); compound 1.0 µM", "result": 95, "unit": "%"}, {"measurement": "residual activity", "setting": "AURKA (human); compound 10.0 µM", "result": 28, "unit": "%"}, {"measurement": "residual activity", "setting": "BRSK1 (human); compound 1.0 µM", "result": 82, "unit": "%"}, {"measurement": "residual activity", "setting": "BRSK1 (human); compound 10.0 µM", "result": 7, "unit": "%"}, {"measurement": "residual activity", "setting": "DYRK2 (human); compound 1.0 µM", "result": 45, "unit": "%"}, {"measurement": "residual activity", "setting": "DYRK2 (human); compound 10.0 µM", "result": 1, "unit": "%"}, {"measurement": "residual activity", "setting": "EEF2K (human); compound 1.0 µM", "result": 110, "unit": "%"}, {"measurement": "residual activity", "setting": "EEF2K (human); compound 10.0 µM", "result": 109, "unit": "%"}, {"measurement": "residual activity", "setting": "EPHA2 (human); compound 1.0 µM", "result": 94, "unit": "%"}, {"measurement": "residual activity", "setting": "EPHA2 (human); compound 10.0 µM", "result": 73, "unit": "%"}, {"measurement": "residual activity", "setting": "EPHB3 (human); compound 1.0 µM", "result": 93, "unit": "%"}, {"measurement": "residual activity", "setting": "EPHB3 (human); compound 10.0 µM", "result": 61, "unit": "%"}, {"measurement": "residual activity", "setting": "ERBB4 (human); compound 1.0 µM", "result": 109, "unit": "%"}, {"measurement": "residual activity", "setting": "ERBB4 (human); compound 10.0 µM", "result": 44, "unit": "%"}, {"measurement": "residual activity", "setting": "GSK3B (human); compound 1.0 µM", "result": 94, "unit": "%"}, {"measurement": "residual activity", "setting": "GSK3B (human); compound 10.0 µM", "result": 19, "unit": "%"}, {"measurement": "residual activity", "setting": "HIPK3 (human); compound 1.0 µM", "result": 88, "unit": "%"}, {"measurement": "residual activity", "setting": "HIPK3 (human); compound 10.0 µM", "result": 55, "unit": "%"}, {"measurement": "residual activity", "setting": "INSR (human); compound 1.0 µM", "result": 86, "unit": "%"}, {"measurement": "residual activity", "setting": "INSR (human); compound 10.0 µM", "result": 62, "unit": "%"}, {"measurement": "residual activity", "setting": "IRAK4 (human); compound 1.0 µM", "result": 80, "unit": "%"}, {"measurement": "residual activity", "setting": "IRAK4 (human); compound 10.0 µM", "result": 46, "unit": "%"}, {"measurement": "residual activity", "setting": "MAP2K2 (human)", "result": 94, "unit": "%"}, {"measurement": "residual activity", "setting": "MAP2K6 (human)", "result": 102, "unit": "%"}, {"measurement": "residual activity", "setting": "MAP3K1 (human); compound 1.0 µM", "result": 67, "unit": "%"}, {"measurement": "residual activity", "setting": "MAP3K1 (human); compound 10.0 µM", "result": 74, "unit": "%"}, {"measurement": "residual activity", "setting": "MAP3K11 (human); compound 1.0 µM", "result": 62, "unit": "%"}, {"measurement": "residual activity", "setting": "MAP3K11 (human); compound 10.0 µM", "result": 16, "unit": "%"}, {"measurement": "residual activity", "setting": "MAP3K5 (human)", "result": 118, "unit": "%"}, {"measurement": "residual activity", "setting": "MAP3K7 TAB1 (human); compound 1.0 µM", "result": 94, "unit": "%"}, {"measurement": "residual activity", "setting": "MAP3K7 TAB1 (human); compound 10.0 µM", "result": 5, "unit": "%"}, {"measurement": "residual activity", "setting": "MAP3K9 (human); compound 1.0 µM", "result": 100, "unit": "%"}, {"measurement": "residual activity", "setting": "MAP3K9 (human); compound 10.0 µM", "result": 24, "unit": "%"}, {"measurement": "residual activity", "setting": "MAPK12 (human); compound 1.0 µM", "result": 107, "unit": "%"}, {"measurement": "residual activity", "setting": "MAPK12 (human); compound 10.0 µM", "result": 88, "unit": "%"}, {"measurement": "residual activity", "setting": "MAPK9 (human); compound 1.0 µM", "result": 106, "unit": "%"}, {"measurement": "residual activity", "setting": "MAPK9 (human); compound 10.0 µM", "result": 100, "unit": "%"}, {"measurement": "residual activity", "setting": "MAPKAPK2 (human); compound 1.0 µM", "result": 94, "unit": "%"}, {"measurement": "residual activity", "setting": "MAPKAPK2 (human); compound 10.0 µM", "result": 53, "unit": "%"}, {"measurement": "residual activity", "setting": "MARK1 (human); compound 1.0 µM", "result": 40, "unit": "%"}, {"measurement": "residual activity", "setting": "MARK1 (human); compound 10.0 µM", "result": 11, "unit": "%"}, {"measurement": "residual activity", "setting": "MARK2 (human); compound 1.0 µM", "result": 86, "unit": "%"}, {"measurement": "residual activity", "setting": "MARK2 (human); compound 10.0 µM", "result": 26, "unit": "%"}, {"measurement": "residual activity", "setting": "MARK4 (human); compound 1.0 µM", "result": 34, "unit": "%"}, {"measurement": "residual activity", "setting": "MARK4 (human); compound 10.0 µM", "result": 20, "unit": "%"}, {"measurement": "residual activity", "setting": "MELK (human); compound 1.0 µM", "result": 53, "unit": "%"}, {"measurement": "residual activity", "setting": "MELK (human); compound 10.0 µM", "result": 9, "unit": "%"}, {"measurement": "residual activity", "setting": "MST4 (human); compound 1.0 µM", "result": 87, "unit": "%"}, {"measurement": "residual activity", "setting": "MST4 (human); compound 10.0 µM", "result": 58, "unit": "%"}, {"measurement": "residual activity", "setting": "NTRK1 (human); compound 1.0 µM", "result": 92, "unit": "%"}, {"measurement": "residual activity", "setting": "NTRK1 (human); compound 10.0 µM", "result": 29, "unit": "%"}, {"measurement": "residual activity", "setting": "NUAK1 (human); compound 1.0 µM", "result": 33, "unit": "%"}, {"measurement": "residual activity", "setting": "NUAK1 (human); compound 10.0 µM", "result": 12, "unit": "%"}, {"measurement": "residual activity", "setting": "PAK4 (human); compound 1.0 µM", "result": 50, "unit": "%"}, {"measurement": "residual activity", "setting": "PAK4 (human); compound 10.0 µM", "result": 38, "unit": "%"}, {"measurement": "residual activity", "setting": "PAK6 (human); compound 1.0 µM", "result": 58, "unit": "%"}, {"measurement": "residual activity", "setting": "PAK6 (human); compound 10.0 µM", "result": 60, "unit": "%"}, {"measurement": "residual activity", "setting": "PIM1 (human); compound 1.0 µM", "result": 37, "unit": "%"}, {"measurement": "residual activity", "setting": "PIM1 (human); compound 10.0 µM", "result": 7, "unit": "%"}, {"measurement": "residual activity", "setting": "PKN2 (human); compound 1.0 µM", "result": 106, "unit": "%"}, {"measurement": "residual activity", "setting": "PKN2 (human); compound 10.0 µM", "result": 102, "unit": "%"}, {"measurement": "residual activity", "setting": "PRKCA (human); compound 1.0 µM", "result": 99, "unit": "%"}, {"measurement": "residual activity", "setting": "PRKCA (human); compound 10.0 µM", "result": 80, "unit": "%"}, {"measurement": "residual activity", "setting": "PRKCZ (human); compound 1.0 µM", "result": 62, "unit": "%"}, {"measurement": "residual activity", "setting": "PRKCZ (human); compound 10.0 µM", "result": 20, "unit": "%"}, {"measurement": "residual activity", "setting": "[2]; compound 1.0 µM", "result": 95, "unit": "%"}, {"measurement": "residual activity", "setting": "[2]; compound 10.0 µM", "result": 55, "unit": "%"}]}
